Assay results published in ChEMBL document CHEMBL4342426, “Structure-activity relationship of 4-azaindole-2-piperidine derivatives as agents against Trypanosoma cruzi” (Bioorg Med Chem Lett, 2020).
pIC50: −log10 of the molar value. ≈ marks a conversion by molar mass, not a printed value.

Legend:
[1] = test system: Macrophage; test: cells; conditions: Mus musculus, 72 h
Description: (§1) Cytotoxicity against mouse peritoneal Macrophage cells assessed as reduction in cell viability incubated for 3 days by fluorimetry

[2] = test system: Trypanosoma brucei rhodesiense; test: microbe, parasite or virus in culture; conditions: STIB900, 72 h
Description: Antiprotozoal activity against Trypanosoma brucei rhodesiense STIB900 trypomastigotes incubated for 72 hrs by resazurin dye based fluorimetric analysis

[3] = physchem; conditions: PBS buffer, pH 2
Description: Kinetic solubility of compound in PBS buffer at pH 2

[4] = test system: Leishmania infantum; test: microbe, parasite or virus in culture; conditions: for pIC50: MHOM/MA(BE)/67/ITMAP263, 120 h; for IC90: MHOM/MA(BE)/67/ITMAP263, in Mus musculus, 120 h
Description: Antileishmanial activity against amastigote stage of Leishmania infantum MHOM/MA(BE)/67/ITMAP263 infected in mouse peritoneal macrophage assessed as parasite growth inhibition incubated for 5 days by Giemsa staining based assay

[5] = test system: Trypanosoma cruzi; test: microbe, parasite or virus in culture; conditions: Tulahuen CL2, MRC-5 SV2, 168 h
Description: Antitrypanosomal activity against Trypanosoma cruzi Tulahuen CL2 amastigotes infected in human MRC5 SV2 cells incubated for 7 days by chlorophenol red beta-D-galactopyranoside substrate based spectrophotometric assay

[6] = in vitro; conditions: dog, MDCK
[7] = in vitro; conditions: human, MRC5 SV2 cells
Description: Selectivity index, ratio of IC50 for human MRC5 SV2 cells to IC50 for Trypanosoma cruzi Tulahuen CL2 amastigotes infected in human MRC5 SV2 cells

[8] = in vitro; conditions: human, liver microsomes
Description: Metabolic stability in human liver microsomes assessed as intrinsic clearance at 0.5 uM incubated for 30 mins by LC-MS/MS analysis

[9] = in vitro; conditions: mouse, liver microsomes
Description: Metabolic stability in mouse liver microsomes assessed as intrinsic clearance at 0.5 uM incubated for 30 mins by LC-MS/MS analysis

[10] = physchem; conditions: PBS buffer, pH 7.4
Description: Kinetic solubility of compound in PBS buffer at pH 7.4

[11] = in vitro; conditions: dog, MDCK; remark: listed apart in the source
Description: Apparent permeability across basolateral to apical side in MDCK cells

[12] = in vitro; conditions: human, MRC5 SV2 cells; remark: listed apart in the source
Description: (§2) Cytotoxicity against human MRC5 SV2 cells assessed as reduction in cell viability incubated for 3 days by fluorimetry

[13] = cells; conditions: Homo sapiens, MRC-5 SV2, 72 h
Description: as §2

[14] = test system: Trypanosoma brucei; test: microbe, parasite or virus in culture; conditions: Squib 427, 72 h
Description: Antitrypanosomal activity against Trypanosoma brucei Squib 427 assessed as reduction in parasite growth incubated for 72 hrs by resazurin dye based fluorimetric analysis

[15] = in vitro; conditions: mouse, peritoneal macrophages
Description: as §1

[16] = in vitro; conditions: mouse, peritoneal macrophages; remark: listed apart in the source
Description: Selectivity index, ratio of IC50 for mouse peritoneal macrophage to IC50 for Leishmania infantum MHOM/MA(BE)/67/ITMAP263 infected in mouse peritoneal macrophage

[17] = in vitro; conditions: mouse, liver microsomes; remark: listed apart in the source
Description: Metabolic stability in mouse liver microsomes assessed as fraction unbound at 0.5 uM incubated for 30 mins by LC-MS/MS analysis

[18] = in vitro; conditions: human, MRC5 SV2 cells; remark: listed apart in the source
Description: Selectivity index, ratio of IC50 for human MRC5 SV2 cells to IC50 for Trypanosoma brucei Squib 427

[19] = in vitro; conditions: PAMPA
Description: Effective permeability of compound by PAMPA assay

[20] = physchem; conditions: buffer, pH 7.4
Description: Lipophilicity, logD of compound at pH 7.4 by HPLC analysis

[21] = in vitro; conditions: human, MRC5 SV2 cells; remark: listed apart in the source
Description: Selectivity index, ratio of IC50 for human MRC5 SV2 cells to IC50 for Trypanosoma brucei rhodesiense STIB900 trypomastigotes

| Compound | pIC50 [2] | IC90 [2] [µM] | pIC50 [4] | IC90 [4] [µM] | CLint scaled at 0.5 h, 0.5 µM [8] [mL/min/kg] | microsomal CLint at 0.5 h, 0.5 µM [8] [µL/min/mg] | CLint scaled at 0.5 h, 0.5 µM [9] [mL/min/kg] | microsomal CLint at 0.5 h, 0.5 µM [9] [µL/min/mg] | IC90 at 72 h [12] [µM] | pIC50 [14] | IC90 [14] [µM] | IC90 at 72 h [15] [µM] | Papp [19] [×10⁻⁶ cm/s] | logD [20] | pIC50 [1] | pIC50 [5] | IC90 [5] [µM] | selectivity ratio [7] | pIC50 [13] | selectivity ratio [18] | also measured |
| --- | --- | --- | --- | --- | --- | --- | --- | --- | --- | --- | --- | --- | --- | --- | --- | --- | --- | --- | --- | --- | --- |
| O=C(c1cc(C(F)(F)F)no1)N1CCCC(c2cc3nc(NCc4ccccc4)ccc3[nH]2)C1 (stereo not drawn) | 5.30 | 13 | 5.20 | 23.6 | 1870 | 149 | – | – | 13.6 | 5.10 | 14.8 | 29.9 | 0.239 | 4.4 | 4.65 | 5.67 | 64 | 3.23 | 5.16 | 0.894 | selectivity ratio [16]: 1.07; fraction unbound at 0.5 h, 0.5 µM [17]: 0.0857; selectivity ratio [21]: 1.4 |
| O=C(c1ccc(F)cc1)N1CCCC(c2cc3ncc(Cl)cc3[nH]2)C1 (stereo not drawn) | 5.23 | 13.9 | 4.73 | 50.4 | 62.2 | 44.6 | 970 | 235 | 64 | 4.79 | 32.4 | 64 | 10.6 | 3.82 | 4.19 | 4.54 | 59.5 | 1.2 | 4.46 | 2.16 | selectivity ratio [16]: 1.9; fraction unbound at 0.5 h, 0.5 µM [17]: 0.775; selectivity ratio [21]: 5.94 |
| O=C(c1ccccc1)N1CCCC(c2cn3nc(Cl)ccc3n2)C1 (stereo not drawn) | 5.11 | 14.5 | 4.19 | 64 | > 61.7 | 56.9 | > 772 | 242 | 64 | 4.32 | 64 | 64 | 23.6 | 3.18 | 4.19 | 4.19 | 64 | – | 4.19 | 1.37 | selectivity ratio [21]: 8.19 |

The next lines start with results.

| pIC50 [2] | IC90 [2] [µM] | pIC50 [4] | IC90 [4] [µM] | CLint scaled at 0.5 h, 0.5 µM [8] [mL/min/kg] | microsomal CLint at 0.5 h, 0.5 µM [8] [µL/min/mg] | CLint scaled at 0.5 h, 0.5 µM [9] [mL/min/kg] | microsomal CLint at 0.5 h, 0.5 µM [9] [µL/min/mg] | IC90 at 72 h [12] [µM] | pIC50 [14] | IC90 [14] [µM] | IC90 at 72 h [15] [µM] | Papp [19] [×10⁻⁶ cm/s] | logD [20] | Compound | pIC50 [1] | pIC50 [5] | IC90 [5] [µM] | selectivity ratio [7] | pIC50 [13] | selectivity ratio [18] | also measured |
| --- | --- | --- | --- | --- | --- | --- | --- | --- | --- | --- | --- | --- | --- | --- | --- | --- | --- | --- | --- | --- | --- |
| 4.42 to 4.49 | 32 to 58.7 | 4.19 to 4.49 | 32 to 64 | 67.8 | 37 | 1600 | 560 | 64 | 4.26 to 4.49 | 32 to 64 | 32 to 64 | – | – | CC(C)c1cc(C(=O)N2CCCC(c3cc4ncccc4[nH]3)C2)on1 (stereo not drawn) | 4.19 to 4.49 | 5.41 to 5.54 | 7.61 to 24.3 | 8.25 to 22.1 | 4.19 | – | solubility kinetic [3]: > 67.3 µg/mL; Papp A→B [6]: 29.4 ×10⁻⁶ cm/s; solubility kinetic [10]: 60.4 µg/mL (≈ 178 µM); Papp B→A [11]: 33.2 ×10⁻⁶ cm/s |
| 5.04 | 35.5 | 4.43 | 60.5 | 83.7 | 50.6 | 5840 | 1200 | 60.9 | 4.50 | 59.1 | 59.7 | 2.78 | 3.3 | CN(C(=O)c1ccccc1)c1cccc(-c2cc3ncccc3[nH]2)c1 | 4.34 | 5.14 | 64 | 3.59 | 4.58 | 0.849 | selectivity ratio [16]: 0.707; fraction unbound at 0.5 h, 0.5 µM [17]: 0.653; selectivity ratio [21]: 2.89 |
| 4.81 to 5.10 | 36.4 to 49.5 | 4.38 to 4.55 | – | 119 | 23 to 59.2 | 2650 | 398 to 446 | 64 | 4.41 to 4.44 | 58.8 to 63.5 | 64 | 1.54 | 3.23 | CC(C)c1cc(C(=O)N2CC=C(c3cc4ncccc4[nH]3)CC2)on1 | 4.19 | 5.67 to 5.70 | 3.79 to 15.4 | 30.1 to 31.8 | 4.19 | 1.74 | selectivity ratio [16]: 2.32; solubility kinetic [3]: > 67.3 µg/mL; Papp A→B [6]: 14.6 ×10⁻⁶ cm/s; solubility kinetic [10]: 10.4 µg/mL (≈ 31 µM); Papp B→A [11]: 15.3 ×10⁻⁶ cm/s; selectivity ratio [21]: 4.14 to 8.02 |
